Measurements as given in the AptaBench aptamer set (doi:10.1093/nar/gkaf219).

Key:
Conditions in all cases: 10 mM Tris-HCl, pH 7.4
[1] = test system: DNA aptamer or structured DNA GGGACGACGCGTACCATGGGTAGTTGCACGTCGTCCAAGTCGTCCC
[2] = test system: DNA aptamer or structured DNA GGGACGACATCGTAGGGGCACACGCTTAACGGGCTGATGTCGTCCC
[3] = test system: DNA aptamer or structured DNA GGGACGACAAAAATGGAAGCATTGGTTGTTGGTGCTTTGTCGTCCC
[4] = test system: DNA aptamer or structured DNA GGGACGACGCGTAGGTCTCCTAGCTGTGCGTCGTTCAAGTCGTCCC
[5] = test system: DNA aptamer or structured DNA GGGACGACTAGTGCCTTCGTGTTGTTCGGGAATCCGGTTCTGTCGTCCC
[6] = test system: DNA aptamer or structured DNA GGGACGACCAGGATTCGGTTCTTTGTAAATAGTGCCTCGTTGGTCGTCCC
[7] = test system: DNA aptamer or structured DNA GGGACGACATGCGTCGAAAAGACCCCTGAGGGCAGCTGGTCGTCCC
[8] = test system: DNA aptamer or structured DNA GGGACGACGCGTACTTCCAGTAGCCGTGCGTCGTTCAAGTCGTCCC
[9] = test system: DNA aptamer or structured DNA GGGACGACCGCGTAGGGGAACACGCTTGCAGGGCTGAGGTCGTCCC
[10] = test system: DNA aptamer or structured DNA GGGACGACAGGGATTCGGTTCTCGATAAGTAGTGCCTCGTACGTCGTCCC
[11] = test system: DNA aptamer or structured DNA GGGACGACAGGGATTCGCGGATTCGGAGAAAAGGGCTCGTACGTCGTCCC
[12] = test system: DNA aptamer or structured DNA GGGACGACCAGGATTCGGTTCGGAAAGTCCAGTGCCTCGTTGGTCGTCCC
[13] = test system: DNA aptamer or structured DNA GGGACGACGGCACGAGGTTATTCGTTGGTTGCACTGCGCTGGGAGGCAGTCGTCCC
[14] = test system: DNA aptamer or structured DNA CTTACGACCGGTGGGGAGGCCGGAGTTGGGAACGGGGGGTCGTAAG
[15] = test system: DNA aptamer or structured DNA CTTACGACCGACTTTTGGGTGTTCTGGGTGGGATGTGGGTCGTAAG
[16] = test system: DNA aptamer or structured DNA GGGACGACCGTCCGAGTTTTAGGAGTGGTTGCATTGCGCTGGGAAGAGGTCGTCCC
[17] = test system: DNA aptamer or structured DNA CTTACGACAGGTTCTGAGGAATCAACGTCGGTGTAGTTGTCGTAAG
[18] = test system: DNA aptamer or structured DNA GGGACGACGGCACGAGGTAATTCGTTGGTTGCACTGCGCTGGGAGGCAGTCGTCCC
[19] = test system: DNA aptamer or structured DNA GGGACGACTAGCGGTGTTGGTCGGAGTGGTGGAATCTAGTCGTCCC
[20] = test system: DNA aptamer or structured DNA GGGACGACGCCGGCTTCTAGGGGGGGTGTGGGTGGCGAGTCGTCCC
[21] = test system: DNA aptamer or structured DNA GGGACGACGGATTGCGCTTGCTAACGCCGTGTAGAGTCGTCGTCCC
[22] = test system: DNA aptamer or structured DNA GGGACGACGCGTAGGTTTCCTAGCTGTGCGTCGTTCAAGTCGTCCC
[23] = test system: DNA aptamer or structured DNA GGGACGACATGGGATACCAGAGTCCTGGGATGTGGTGTGTCGTCCC
[24] = test system: DNA aptamer or structured DNA GGGACGACCGTTGTTCGAGCCTTGAGTACCATTGGTAGGTCGTCCC
[25] = test system: DNA aptamer or structured DNA GGGACGACCGTTGGCGAGTGTGTCCGGGGACTACAGGGGTCGTCCC
[26] = test system: DNA aptamer or structured DNA GGGACGACGAGTGCGGGGAGTGTGTTTCTGTGGGGGTCGTCGTCCC
[27] = test system: DNA aptamer or structured DNA GGGACGACGCGCATGTGGTGTCGGTCAGATGGGATGAAGTCGTCCC
[28] = test system: DNA aptamer or structured DNA GGGACGACGGGGGGAGTTTGTTTGTGTGGGAGGGTCCAGTCGTCCC
[29] = test system: DNA aptamer or structured DNA GGGACGACGCCGGCTTTTAGGGGGGGTGTGGGTGGCGAGTCGTCCC
[30] = test system: DNA aptamer or structured DNA GGGACGACGCAGCAGTCCATCTCTCAGCGAGTTCGTCAGTCGTCCC
[31] = test system: DNA aptamer or structured DNA GGGACGACCAGAATGGAAGCATTGGTTGCCGCAGGGTGCCGCAGTCGTCCC
[32] = test system: DNA aptamer or structured DNA CTTACGACATCTGCGTGTGGCCGGTGTGAGGGAGGGATGTCGTAAG
Wherever binding call is given: call rule not given here.

Row | SMILES | binding call [2] | binding call [3] | binding call [5] | binding call [6] | binding call [8] | binding call [9] | binding call [10] | binding call [12] | binding call [14] | binding call [15] | binding call [19] | binding call [20] | binding call [21] | binding call [25] | also measured
1 | O=C1CC[C@@]2(O)[C@H]3Cc4ccc(O)c5c4[C@@]2(CCN3CC2CC2)[C@H]1O5 | no binding | no binding | no binding | no binding | no binding | no binding | no binding | no binding |  |  |  |  |  |  | binding call [1]: no binding; binding call [4]: no binding; binding call [7]: no binding; binding call [11]: no binding
2 | C=C[C@H]1CN2CC[C@@H]1C[C@H]2[C@H](O)c1ccnc2ccc(OC)cc12 | no binding | no binding | no binding |  | no binding | no binding |  | binds | no binding | no binding | binds |  |  |  | binding call [13]: binds; binding call [16]: binds; binding call [17]: no binding; binding call [18]: no binding; binding call [11]: no binding
3 | CN(C)CCOC(c1ccccc1)c1ccccc1 | no binding |  | no binding | no binding |  |  | no binding | no binding | no binding | no binding | no binding | no binding | no binding |  | binding call [22]: no binding
4 | C=CCN1CC[C@]23c4c5ccc(O)c4O[C@H]2C(=O)CC[C@@]3(O)[C@H]1C5 | binds | no binding | no binding | no binding | no binding | no binding | no binding | no binding |  |  |  |  |  | no binding | binding call [1]: no binding; binding call [23]: no binding; binding call [4]: no binding; binding call [24]: no binding; binding call [22]: no binding
5 | CN1C(=O)CN=C(c2ccccc2)c2cc(Cl)ccc21 | no binding |  |  |  |  |  |  |  |  |  | no binding |  | no binding | no binding | binding call [26]: no binding; binding call [23]: no binding; binding call [7]: no binding; binding call [27]: binds
6 | COc1ccc2c3c1O[C@H]1C(=O)CC[C@@]4(O)[C@@H](C2)N(C)CC[C@]314 |  |  |  |  |  |  |  |  |  |  | no binding | binds |  |  | Kd [26]: 0.99 µM; Kd [2]: 1.42 µM; Kd [23]: 2.77 µM; Kd [28]: 1.75 µM; binding call [29]: no binding; Kd [30]: 2.22 µM; binding call [17]: no binding; Kd [21]: 2.16 µM; Kd [27]: 3.7 µM; binding call [31]: no binding
7 | Cn1c(=O)c2c(ncn2C)n(C)c1=O | no binding |  |  |  |  |  |  |  |  |  |  |  | no binding | no binding | binding call [28]: binds; binding call [30]: no binding; binding call [32]: no binding; binding call [24]: no binding; binding call [27]: binds
8 | CC(=O)Oc1ccc2c3c1O[C@H]1[C@@H](OC(C)=O)C=C[C@H]4[C@@H](C2)N(C)CC[C@@]341 |  | no binding |  |  |  |  |  |  | no binding | no binding | no binding | no binding |  |  | Kd [1]: 5.62 µM; Kd [4]: 4.35 µM; binding call [29]: no binding; binding call [32]: binds; Kd [24]: 2.28 µM; Kd [7]: 1.11 µM; Kd [8]: 4.08 µM; Kd [22]: 4.57 µM; Kd [25]: 1.61 µM
